Test: Anti-oxidation activity: peroxide value of linoleic acid
Conditions: sample 0.5% in linoleic acid, incubator 40° C.
Description: The novel POE-POP vitamin E of the present invention was examined for anti-oxidation activity, using linoleic acid. Readily being oxidized, linoleic acid can be used in determining the ability of an antioxidant of interest to inhibit the oxidation of linoleic acid. Used in this test was reagent-grade linoleic acid that comprised linoleic acid 85% and linolenic acid 15%.
POE-POP vitamin E prepared in Example 1, 2 or 3 was added in an amount of 0.5% to linoleic acid while vitamin E, vitamin E acetate, POE (12EO) vitamin E, POE (24 EO)-cholesterol, POE (20 EO) sorbitan monostearate, and POE (12 EO) nonylphenylether were also used as references. These samples were stored in an incubator maintained at 40° C. After two and ten days of incubation, a peroxide value was determined for each sample. In detail, in 1.0 g of each sample was placed in a 250 ml Erlenmeyer flask and dissolved with 10 ml of chloroform. To the solution, 15 ml of glacial acetic acid and 1 ml of saturated potassium iodide solution were added, and a stopper was put in the flask. After being vigorously shaken, the flask was allowed to stand in a dark place for 5 min. Thereafter, the flask was added with 75 ml of distilled water and vigorously shaken. Free iodine was titrated with a 0.01 N sodium thiosulfate solution, using a starch solution as an indicator. The point at which the solution became colorless was regarded as the end point. The peroxide value was calculated as follows:
[formula] wherein, S: Amount of 0.01 N sodium thiosulfate solution consumed by sample (ml) B: Amount of 0.01 N sodium thiosulfate solution consumed in blank test tube (ml) F: Factor of 0.01 N sodium thiosulfate solution

Molecule | Peroxide Values (Day 2) | Peroxide Values (Day 10)
Vitamin E | 21.6 | 58.9
CC(=O)Oc1c(C)c(C)c2c(c1C)CCC(C)(CCC[C@H](C)CCC[C@H](C)CCCC(C)C)O2 (stereo partly shown) [Vitamin E acetate] | 26.2 | 122.3

Source: patent publication US7144919B1, “Polyoxyethylene-polyoxypropylene vitamin E and process for preparation thereof” (priority 2000, dated 2006)
